From patent EP4722207A1, “OXOISOINDOLINYL-SUBSTITUTED TETRAHYDROPYRIMIDINEDIONE DERIVATIVE AND USE THEREOF” (Gluetacs Therapeutics (Shanghai) Co., Ltd., priority 2023, dated 2024)

How the values were obtained:
[1] = biological target: T1, WEE1 (Homo sapiens, UniProt P30291+Q96SW2); assay: Western-blot assay, substrate protein degradation in hPBMCs: WEE1; format: cell-based; conditions: compounds at 50 nM and 500 nM, 24 hours
T1 construct: effects of the compounds of the present disclosure on the expression of target proteins in cells; endogenous in cells; host or cells: human PBMCs (hPBMCs)

[2] = biological target: T2, IKZF1 (Homo sapiens, UniProt Q13422+Q96SW2); assay: Western-blot assay, substrate protein degradation in hPBMCs: IKZF1; format: cell-based; conditions: compounds at 50 nM and 500 nM, 24 hours
T2 construct: effects of the compounds of the present disclosure on the expression of target proteins in cells; endogenous in cells; host or cells: human PBMCs (hPBMCs)

[3] = biological target: T3, IKZF2 (Homo sapiens, UniProt Q96SW2+Q9UKS7); assay: Western-blot assay, substrate protein degradation in hPBMCs: IKZF2; format: cell-based; conditions: compounds at 50 nM and 500 nM, 24 hours
T3 construct: effects of the compounds of the present disclosure on the expression of target proteins in cells; endogenous in cells; host or cells: human PBMCs (hPBMCs)

[4] = biological target: T4, IKZF3 (Homo sapiens, UniProt Q96SW2+Q9UKT9); assay: Western-blot assay, substrate protein degradation in hPBMCs: IKZF3; format: cell-based; conditions: compounds at 50 nM and 500 nM, 24 hours
T4 construct: effects of the compounds of the present disclosure on the expression of target proteins in cells; endogenous in cells; host or cells: human PBMCs (hPBMCs)

[5] = biological target: T5, CK1α (Homo sapiens, UniProt P48729+Q96SW2); assay: Western-blot assay, substrate protein degradation in hPBMCs: CK1α; format: cell-based; conditions: compounds at 50 nM and 500 nM, 24 hours
T5 construct: effects of the compounds of the present disclosure on the expression of target proteins in cells; endogenous in cells; host or cells: human PBMCs (hPBMCs)

[6] = biological target: T6, GSPT1 (Homo sapiens, UniProt P15170+Q96SW2); assay: Western-blot assay, substrate protein degradation in hPBMCs: GSPT1; format: cell-based; conditions: compounds at 50 nM and 500 nM, 24 hours
T6 construct: effects of the compounds of the present disclosure on the expression of target proteins in cells; endogenous in cells; host or cells: human PBMCs (hPBMCs)

[7] = system: MV-4-11; assay: Cell viability assay (CellTiter-Meiluncell Luminescent), tumor cell proliferation, MV-4-11; conditions: Homo sapiens, MV4-11, 96 h, read-out: inhibitory activity (IC50, nM) against tumor cells proliferation, MV-4-11

T4 sequence (Q9UKT9 whole entry): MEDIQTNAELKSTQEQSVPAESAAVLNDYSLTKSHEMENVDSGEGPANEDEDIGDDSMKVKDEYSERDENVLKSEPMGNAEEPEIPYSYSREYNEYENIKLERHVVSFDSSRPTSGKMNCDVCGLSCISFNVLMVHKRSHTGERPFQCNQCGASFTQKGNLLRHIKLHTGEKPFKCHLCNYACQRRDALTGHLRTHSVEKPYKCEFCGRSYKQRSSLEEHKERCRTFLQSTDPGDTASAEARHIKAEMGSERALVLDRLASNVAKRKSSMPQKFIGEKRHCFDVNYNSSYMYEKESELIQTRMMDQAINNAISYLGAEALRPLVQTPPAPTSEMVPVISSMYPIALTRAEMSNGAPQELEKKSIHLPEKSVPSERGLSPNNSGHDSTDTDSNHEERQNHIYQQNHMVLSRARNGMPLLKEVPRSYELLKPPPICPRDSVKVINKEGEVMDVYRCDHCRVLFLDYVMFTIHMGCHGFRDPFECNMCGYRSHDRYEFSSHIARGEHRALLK
T4 sequence (Q96SW2 whole entry): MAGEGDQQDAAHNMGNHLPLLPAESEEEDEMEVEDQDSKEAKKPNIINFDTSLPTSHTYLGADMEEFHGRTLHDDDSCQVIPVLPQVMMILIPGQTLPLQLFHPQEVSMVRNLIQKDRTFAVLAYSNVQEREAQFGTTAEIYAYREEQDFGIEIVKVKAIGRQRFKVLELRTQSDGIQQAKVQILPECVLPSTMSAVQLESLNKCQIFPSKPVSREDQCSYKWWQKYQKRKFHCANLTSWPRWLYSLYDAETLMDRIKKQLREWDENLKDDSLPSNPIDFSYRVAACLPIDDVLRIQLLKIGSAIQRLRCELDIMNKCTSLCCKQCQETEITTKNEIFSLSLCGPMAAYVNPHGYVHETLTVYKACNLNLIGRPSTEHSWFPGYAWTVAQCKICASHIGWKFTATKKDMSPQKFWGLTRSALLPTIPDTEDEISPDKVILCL
T4 sequence (Q16531 whole entry partner): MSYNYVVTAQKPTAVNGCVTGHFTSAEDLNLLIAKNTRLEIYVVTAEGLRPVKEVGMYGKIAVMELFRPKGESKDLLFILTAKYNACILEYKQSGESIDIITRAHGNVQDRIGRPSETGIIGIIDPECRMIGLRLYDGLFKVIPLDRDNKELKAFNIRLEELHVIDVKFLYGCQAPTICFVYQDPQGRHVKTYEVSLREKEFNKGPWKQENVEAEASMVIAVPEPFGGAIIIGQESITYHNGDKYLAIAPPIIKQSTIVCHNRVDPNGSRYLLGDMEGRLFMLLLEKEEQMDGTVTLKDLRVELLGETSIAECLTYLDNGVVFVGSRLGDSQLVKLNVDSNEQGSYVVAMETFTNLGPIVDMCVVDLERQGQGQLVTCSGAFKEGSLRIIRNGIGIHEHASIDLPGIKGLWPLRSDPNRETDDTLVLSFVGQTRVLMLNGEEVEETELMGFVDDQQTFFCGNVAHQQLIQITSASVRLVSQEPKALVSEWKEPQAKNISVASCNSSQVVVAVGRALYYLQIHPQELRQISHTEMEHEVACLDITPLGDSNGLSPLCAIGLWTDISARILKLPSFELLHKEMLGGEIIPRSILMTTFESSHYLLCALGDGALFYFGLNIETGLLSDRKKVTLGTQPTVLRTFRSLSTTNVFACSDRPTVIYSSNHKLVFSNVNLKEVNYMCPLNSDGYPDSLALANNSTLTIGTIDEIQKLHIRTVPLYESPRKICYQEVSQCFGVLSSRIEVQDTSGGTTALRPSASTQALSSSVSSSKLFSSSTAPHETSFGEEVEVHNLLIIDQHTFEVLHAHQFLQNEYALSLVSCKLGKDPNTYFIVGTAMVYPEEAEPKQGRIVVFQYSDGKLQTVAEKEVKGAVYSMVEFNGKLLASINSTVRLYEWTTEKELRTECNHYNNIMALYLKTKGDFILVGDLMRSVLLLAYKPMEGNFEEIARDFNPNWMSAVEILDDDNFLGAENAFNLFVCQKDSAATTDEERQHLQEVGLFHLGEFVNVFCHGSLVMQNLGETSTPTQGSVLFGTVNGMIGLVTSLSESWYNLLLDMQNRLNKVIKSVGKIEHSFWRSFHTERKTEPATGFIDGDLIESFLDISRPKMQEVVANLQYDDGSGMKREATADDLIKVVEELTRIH
T2 sequence (Q13422 whole entry): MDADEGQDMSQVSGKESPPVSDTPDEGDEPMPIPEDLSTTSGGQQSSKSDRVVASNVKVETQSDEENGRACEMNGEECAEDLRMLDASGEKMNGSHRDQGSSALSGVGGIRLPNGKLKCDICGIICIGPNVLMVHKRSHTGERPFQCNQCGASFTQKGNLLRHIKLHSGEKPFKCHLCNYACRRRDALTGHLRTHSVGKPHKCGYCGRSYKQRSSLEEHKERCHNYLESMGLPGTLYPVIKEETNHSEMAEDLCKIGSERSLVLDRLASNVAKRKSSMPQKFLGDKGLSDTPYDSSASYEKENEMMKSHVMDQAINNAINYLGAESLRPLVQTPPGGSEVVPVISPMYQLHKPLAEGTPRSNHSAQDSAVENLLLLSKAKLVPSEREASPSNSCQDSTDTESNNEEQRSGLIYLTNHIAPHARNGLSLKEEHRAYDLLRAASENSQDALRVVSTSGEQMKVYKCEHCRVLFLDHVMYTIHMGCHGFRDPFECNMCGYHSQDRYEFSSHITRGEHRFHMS
T2 sequence (Q96SW2 whole entry): as the sequence (Q96SW2 whole entry) above
T2 sequence (Q16531 whole entry partner): as the sequence (Q16531 whole entry partner) above
T6 sequence (P15170 whole entry): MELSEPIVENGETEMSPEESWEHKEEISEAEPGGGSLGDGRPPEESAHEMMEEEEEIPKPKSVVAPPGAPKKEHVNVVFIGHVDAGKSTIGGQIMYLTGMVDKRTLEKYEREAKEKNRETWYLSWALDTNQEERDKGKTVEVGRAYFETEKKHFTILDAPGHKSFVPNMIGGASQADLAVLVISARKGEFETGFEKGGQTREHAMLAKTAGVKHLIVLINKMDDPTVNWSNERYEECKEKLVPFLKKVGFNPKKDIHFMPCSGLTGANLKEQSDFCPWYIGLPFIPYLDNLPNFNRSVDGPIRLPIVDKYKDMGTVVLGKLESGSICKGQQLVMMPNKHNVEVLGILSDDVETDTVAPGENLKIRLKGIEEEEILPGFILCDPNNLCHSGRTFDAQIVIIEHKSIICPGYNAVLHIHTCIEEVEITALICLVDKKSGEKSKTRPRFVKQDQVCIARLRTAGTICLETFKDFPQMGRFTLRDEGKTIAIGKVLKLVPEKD
T6 sequence (Q96SW2 whole entry): as the sequence (Q96SW2 whole entry) above
T6 sequence (Q16531 whole entry partner): as the sequence (Q16531 whole entry partner) above
T3 sequence (Q9UKS7 whole entry): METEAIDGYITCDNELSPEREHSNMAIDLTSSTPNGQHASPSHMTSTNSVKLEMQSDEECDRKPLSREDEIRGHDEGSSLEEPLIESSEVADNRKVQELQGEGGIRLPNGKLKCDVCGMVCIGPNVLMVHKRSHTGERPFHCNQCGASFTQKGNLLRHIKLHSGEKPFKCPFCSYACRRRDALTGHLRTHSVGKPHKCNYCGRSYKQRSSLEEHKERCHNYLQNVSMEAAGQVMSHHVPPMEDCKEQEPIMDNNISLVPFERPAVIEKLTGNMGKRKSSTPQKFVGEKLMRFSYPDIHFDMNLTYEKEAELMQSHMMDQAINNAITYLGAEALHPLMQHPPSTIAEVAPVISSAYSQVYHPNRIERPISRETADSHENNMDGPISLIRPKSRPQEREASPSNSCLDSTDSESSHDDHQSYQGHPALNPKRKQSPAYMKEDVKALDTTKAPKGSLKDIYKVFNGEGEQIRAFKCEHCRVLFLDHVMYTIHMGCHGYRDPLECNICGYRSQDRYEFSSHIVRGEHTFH
T3 sequence (Q96SW2 whole entry): as the sequence (Q96SW2 whole entry) above
T3 sequence (Q16531 whole entry partner): as the sequence (Q16531 whole entry partner) above
T5 sequence (P48729 whole entry): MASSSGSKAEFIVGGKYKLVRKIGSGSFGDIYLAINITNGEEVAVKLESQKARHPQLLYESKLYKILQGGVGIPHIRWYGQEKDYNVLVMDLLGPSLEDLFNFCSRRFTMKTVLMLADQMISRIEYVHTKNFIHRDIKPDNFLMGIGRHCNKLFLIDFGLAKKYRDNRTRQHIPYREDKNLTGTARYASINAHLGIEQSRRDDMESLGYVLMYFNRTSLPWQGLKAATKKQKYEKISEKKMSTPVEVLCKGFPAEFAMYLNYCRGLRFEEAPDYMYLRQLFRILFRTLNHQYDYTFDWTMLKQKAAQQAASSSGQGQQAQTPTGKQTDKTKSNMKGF
T5 sequence (Q96SW2 whole entry): as the sequence (Q96SW2 whole entry) above
T5 sequence (Q16531 whole entry partner): as the sequence (Q16531 whole entry partner) above

SMILES | WEE1 substrate protein remaining % [1] | IKZF1 substrate protein remaining % [2] | IKZF2 substrate protein remaining % [3] | IKZF3 substrate protein remaining % [4] | CK1α substrate protein remaining % [5] | GSPT1 substrate protein remaining % [6] | IC50 [7]
O=C1CCN(N2Cc3cc(CN4CCN(c5cccc(Br)c5)CC4)ccc3C2=O)C(=O)N1 [GT-06698, 1-(5-((4-(3-bromophenyl)piperazin-1-yl)methyl)-1-oxoisoindolin-2-yl)dihydropyrimidine-2,4(1H,3H)-dione] | B ("B" is defined as 80%< substrate protein remaining %≤ 100%) | B ("B" is defined as 80%< substrate protein remaining %≤ 100%) | B ("B" is defined as 80%< substrate protein remaining %≤ 100%) | B ("B" is defined as 80%< substrate protein remaining %≤ 100%) | B ("B" is defined as 80%< substrate protein remaining %≤ 100%) | A ("A" is defined as 0% ≤ substrate protein remaining % ≤ 80%) | 100 to 300 nM
COc1cccc(N2CCN(Cc3ccc4c(c3)CN(N3CCC(=O)NC3=O)C4=O)CC2)c1 [GT-06699, 1-(5-((4-(3-methoxyphenyl)piperazin-1-yl)methyl)-1-oxoisoindolin-2-yl)dihydropyrimidine-2,4(1H,3H)-dione] | B ("B" is defined as 80%< substrate protein remaining %≤ 100%) | B ("B" is defined as 80%< substrate protein remaining %≤ 100%) | B ("B" is defined as 80%< substrate protein remaining %≤ 100%) | B ("B" is defined as 80%< substrate protein remaining %≤ 100%) | B ("B" is defined as 80%< substrate protein remaining %≤ 100%) | A ("A" is defined as 0% ≤ substrate protein remaining % ≤ 80%) | 100 to 300 nM
O=C1CCN(N2Cc3cc(CN4CCN(c5ccc(F)cc5)CC4)ccc3C2=O)C(=O)N1 [GT-06702, 1-(5-((4-(4-fluorophenyl)piperazin-1-yl)methyl)-1-oxoisoindolin-2-yl)dihydropyrimidine-2,4(1H,3H)-dione] | B ("B" is defined as 80%< substrate protein remaining %≤ 100%) | B ("B" is defined as 80%< substrate protein remaining %≤ 100%) | B ("B" is defined as 80%< substrate protein remaining %≤ 100%) | B ("B" is defined as 80%< substrate protein remaining %≤ 100%) | A ("A" is defined as 0% ≤ substrate protein remaining % ≤ 80%) | A ("A" is defined as 0% ≤ substrate protein remaining % ≤ 80%) | 500 to 1000 nM
O=C1CCN(N2Cc3cc(CN4CCN(c5ccccc5Cl)CC4)ccc3C2=O)C(=O)N1 [GT-06703, 1-(5-((4-(2-chlorophenyl)piperazin-1-yl)methyl)-1-oxoisoindolin-2-yl)dihydropyrimidine-2,4(1H,3H)-dione] | B ("B" is defined as 80%< substrate protein remaining %≤ 100%) | B ("B" is defined as 80%< substrate protein remaining %≤ 100%) | B ("B" is defined as 80%< substrate protein remaining %≤ 100%) | B ("B" is defined as 80%< substrate protein remaining %≤ 100%) | A ("A" is defined as 0% ≤ substrate protein remaining % ≤ 80%) | A ("A" is defined as 0% ≤ substrate protein remaining % ≤ 80%) | 500 to 1000 nM
O=C1CCN(N2Cc3cc(CN4CCN(c5ccc(Cl)cc5)CC4)ccc3C2=O)C(=O)N1 [GT-06765, 1-(5-((4-(4-chlorophenyl)piperazin-1-yl)methyl)-1-oxoisoindolin-2-yl)dihydropyrimidine-2,4(1H,3H)-dione] | B ("B" is defined as 80%< substrate protein remaining %≤ 100%) | B ("B" is defined as 80%< substrate protein remaining %≤ 100%) | B ("B" is defined as 80%< substrate protein remaining %≤ 100%) | B ("B" is defined as 80%< substrate protein remaining %≤ 100%) | A ("A" is defined as 0% ≤ substrate protein remaining % ≤ 80%) | B ("B" is defined as 80%< substrate protein remaining %≤ 100%) | 500 to 1000 nM
O=C1CCN(N2Cc3cc(CN4CCN(c5ccccc5Br)CC4)ccc3C2=O)C(=O)N1 [GT-06766, 1-(5-((4-(2-bromophenyl)piperazin-1-yl)methyl)-1-oxoisoindolin-2-yl)dihydropyrimidine-2,4(1H,3H)-dione] | A ("A" is defined as 0% ≤ substrate protein remaining % ≤ 80%) | A ("A" is defined as 0% ≤ substrate protein remaining % ≤ 80%) | A ("A" is defined as 0% ≤ substrate protein remaining % ≤ 80%) | A ("A" is defined as 0% ≤ substrate protein remaining % ≤ 80%) | A ("A" is defined as 0% ≤ substrate protein remaining % ≤ 80%) | A ("A" is defined as 0% ≤ substrate protein remaining % ≤ 80%) | 500 to 1000 nM
O=C1CCN(N2Cc3cc(CN4CCN(c5cc(Cl)ccc5Cl)CC4)ccc3C2=O)C(=O)N1 [GT-06773, 1-(5-((4-(2,5-dichlorophenyl)piperazin-1-yl)methyl)-1-oxoisoindolin-2-yl)dihydropyrimidine-2,4(1H,3H)-dione] | A ("A" is defined as 0% ≤ substrate protein remaining % ≤ 80%) | B ("B" is defined as 80%< substrate protein remaining %≤ 100%) | A ("A" is defined as 0% ≤ substrate protein remaining % ≤ 80%) | A ("A" is defined as 0% ≤ substrate protein remaining % ≤ 80%) | A ("A" is defined as 0% ≤ substrate protein remaining % ≤ 80%) | A ("A" is defined as 0% ≤ substrate protein remaining % ≤ 80%) | 100 to 300 nM
O=C1CCN(N2Cc3cc(CN4CCN(c5cccc(F)c5F)CC4)ccc3C2=O)C(=O)N1 [GT-06777, 1-(5-((4-(2,3-difluorophenyl)piperazin-1-yl)methyl)-1-oxoisoindolin-2-yl)dihydropyrimidine-2,4(1H,3H)-dione] | A ("A" is defined as 0% ≤ substrate protein remaining % ≤ 80%) | B ("B" is defined as 80%< substrate protein remaining %≤ 100%) | A ("A" is defined as 0% ≤ substrate protein remaining % ≤ 80%) | B ("B" is defined as 80%< substrate protein remaining %≤ 100%) | A ("A" is defined as 0% ≤ substrate protein remaining % ≤ 80%) | A ("A" is defined as 0% ≤ substrate protein remaining % ≤ 80%) | 300 to 500 nM
O=C1CCN(N2Cc3cc(CN4CCC(c5ccccc5)CC4)ccc3C2=O)C(=O)N1 [GT-06884, 1-(1-oxo-5-((4-phenylpiperidin-1-yl)methyl)isoindolin-2-yl)dihydropyrimidine-2,4(1H,3H)-dione] | B ("B" is defined as 80%< substrate protein remaining %≤ 100%) | B ("B" is defined as 80%< substrate protein remaining %≤ 100%) | B ("B" is defined as 80%< substrate protein remaining %≤ 100%) | B ("B" is defined as 80%< substrate protein remaining %≤ 100%) | B ("B" is defined as 80%< substrate protein remaining %≤ 100%) | A ("A" is defined as 0% ≤ substrate protein remaining % ≤ 80%) | 500 to 1000 nM
O=C1CCN(N2Cc3cc(CN4CCC(c5cccc(Br)c5)CC4)ccc3C2=O)C(=O)N1 [GT-06885, 1-(5-((4-(3-bromophenyl)piperidin-1-yl)methyl)-1-oxoisoindolin-2-yl)dihydropyrimidine-2,4(1H,3H)-dione] | B ("B" is defined as 80%< substrate protein remaining %≤ 100%) | A ("A" is defined as 0% ≤ substrate protein remaining % ≤ 80%) | A ("A" is defined as 0% ≤ substrate protein remaining % ≤ 80%) | B ("B" is defined as 80%< substrate protein remaining %≤ 100%) | B ("B" is defined as 80%< substrate protein remaining %≤ 100%) | A ("A" is defined as 0% ≤ substrate protein remaining % ≤ 80%) | 100 to 300 nM
O=C1CCN(N2Cc3cc(CN4CCC(c5cccc(C(F)(F)F)c5)CC4)ccc3C2=O)C(=O)N1 [GT-06892, 1-(1-oxo-5-((4-(3-(trifluoromethyl)phenyl)piperidin-1-yl)methyl)isoindolin-2-yl)dihydropyrimidine-2,4(1H,3H)-dione] | B ("B" is defined as 80%< substrate protein remaining %≤ 100%) | A ("A" is defined as 0% ≤ substrate protein remaining % ≤ 80%) | A ("A" is defined as 0% ≤ substrate protein remaining % ≤ 80%) | B ("B" is defined as 80%< substrate protein remaining %≤ 100%) | B ("B" is defined as 80%< substrate protein remaining %≤ 100%) | A ("A" is defined as 0% ≤ substrate protein remaining % ≤ 80%) | 500 to 1000 nM
